Reference: publication PMC11256326, “Discovery of Heparin Mimetic, Potent, and Selective Inhibitors of Human Clotting Factor XIIIa” (ACS Omega, 2024)

Biological target: T1, FXIIIa (Homo sapiens, UniProt P00488)
T1 construct: purchased Haematologic Technologies; host or cells: human plasma
T1 sequence (P00488 39-732 limits assumed): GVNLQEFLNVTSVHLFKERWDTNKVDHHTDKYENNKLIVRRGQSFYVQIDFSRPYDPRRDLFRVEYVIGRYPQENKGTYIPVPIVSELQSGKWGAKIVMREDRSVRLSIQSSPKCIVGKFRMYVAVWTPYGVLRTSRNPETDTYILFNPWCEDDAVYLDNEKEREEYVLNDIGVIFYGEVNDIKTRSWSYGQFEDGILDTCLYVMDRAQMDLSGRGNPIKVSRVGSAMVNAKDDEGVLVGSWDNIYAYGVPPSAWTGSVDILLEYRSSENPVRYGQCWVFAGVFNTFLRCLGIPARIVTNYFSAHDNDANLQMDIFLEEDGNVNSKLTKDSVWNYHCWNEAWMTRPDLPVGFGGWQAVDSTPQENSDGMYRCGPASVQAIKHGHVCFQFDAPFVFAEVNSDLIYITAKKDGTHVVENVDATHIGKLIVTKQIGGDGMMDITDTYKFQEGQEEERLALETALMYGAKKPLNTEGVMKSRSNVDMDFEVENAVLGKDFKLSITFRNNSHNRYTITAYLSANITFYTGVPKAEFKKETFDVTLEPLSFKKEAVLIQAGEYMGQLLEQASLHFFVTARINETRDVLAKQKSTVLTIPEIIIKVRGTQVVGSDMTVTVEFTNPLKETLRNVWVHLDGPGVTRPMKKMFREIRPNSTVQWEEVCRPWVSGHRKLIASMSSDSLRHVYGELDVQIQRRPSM
Experiment: bisubstrate, fluorescence-based trans-glutamination assay
Format: biochemical
Conditions: for HS (Hill slope), FXIIIa inhibition: logistic fit eq 1; for IC50: pH 7.4, 37 °C, substrates dansylcadaverine and N,N-dimethylcasein
Excerpt: A series of 27 sulfonated molecules (Figure 3) was screened for inhibition of human FXIIIa using a modified bisubstrate, fluorescence-based trans-glutamination assay, as described earlier.[36],[49] Dansylcadaverine and N,N-dimethylcasein were used as two substrates, which upon FXIIIa-dependence conjugation show a marked increase in fluorescence at 550 nm (λEX = 360 nm). The sulfonated molecules were structurally diverse given their number of anionic groups (mono- (inhibitors 24–27) to octa- (inhibitor 9)), number of building blocks (monomeric (molecules 26–29) to […] (inhibitor 14)), and the nature of the building block of oligomeric derivatives (benzamide derivatives (inhibitors 3–10, 24, and 25), triazine derivatives (inhibitors 11–14), and azo-naphthalene derivatives (molecules 15–22), and ureido-naphthalene derivative (23)) (Figure 3).
To measure the potency and efficacy of these inhibitors, the dose-dependence of FXIIIa inhibition was evaluated using logistic eq 1 (Table 1). The potency of inhibition refers to the IC50 (x-axis), whereas the efficacy refers to the net change in residual FXIIIa activity (ΔY%) (y-axis). Iodoacetamide, a nonselective inhibitor of thiol-containing enzymes, was used as a positive control.
To evaluate the effect of sulfonated molecules on human FXIIIa, a bisubstrate, fluorescence-based trans-glutamination assay was performed as we reported previously.[36],[49] Generally, 1 μL of the sulfonated molecule was diluted with 87 μL of pH 7.4 buffer (50 mM Tris-HCl, 1 mM CaCl2, 100 mM NaCl, and 2 mg/mL N,N-dimethylcasein) and 5 μL dithiothreitol (20 mM) at 37 °C followed by the addition of 2 μL of human FXIIIa (0.3 μM) and incubation for 10 min. The activity of FXIIIa was monitored following the addition of 5 μL of dansylcadaverine (2 mM) by measuring the initial rate of increase in fluorescence emission (λEx. = 360 nm and λEm. = 550 nm). Relative residual FXIIIa activity at each concentration of the inhibitor was calculated from the ratio of FXIIIa activity in the presence and absence of the inhibitor. Logistic eq 1 was used to fit the concentration dependence of residual FXIIIa activity to obtain the potency (IC50) and efficacy (ΔY%) of inhibition. [drawing 1] 1
This equation defines Y as the ratio of residual FXIIIa activity with the inhibitor present compared to its absence. YM represents the maximum possible value of residual FXIIIa activity, while YO denotes the minimum possible value. IC50 signifies the concentration of the inhibitor causing 50% enzyme activity inhibition, and HS represents the Hill slope. Determination of YM, YO, IC50, and HS values is achieved through nonlinear curve fitting of the experimental data.

Nc1c(S(=O)(=O)O)cc(Nc2ccc(Nc3nc(Cl)nc(Nc4ccccc4S(=O)(=O)O)n3)c(S(=O)(=O)O)c2)c2c1C(=O)c1ccccc1C2=O [compound 13]
HS (Hill slope), FXIIIa inhibition: 0.7 ± 0.03
IC50: 3.1 ± 0.3 µM

Nc1c(/N=N/c2ccc(Nc3nc(Cl)nc(Nc4cccc(S(=O)(=O)O)c4)n3)cc2S(=O)(=O)O)c(S(=O)(=O)O)cc2c(O)c(/N=N/c3ccc(Nc4nc(Cl)nc(Nc5cccc(S(=O)(=O)O)c5)n4)cc3S(=O)(=O)O)ccc12 [compound 14]
HS (Hill slope), FXIIIa inhibition: 1.1 ± 0.1
IC50: 5.1 ± 0.3 µM

Nc1c(/N=N/c2ccc(S(=O)(=O)CCOS(=O)(=O)O)cc2)c(S(=O)(=O)O)cc2cc(S(=O)(=O)O)c(/N=N/c3ccc(S(=O)(=O)CCOS(=O)(=O)O)cc3)c(O)c12 [compound 16]
HS (Hill slope), FXIIIa inhibition: 0.8 ± 0.1
IC50: 2.4 ± 0.5 µM

Cc1cc(-c2ccc(/N=N/c3ccc4c(S(=O)(=O)O)cc(S(=O)(=O)O)c(N)c4c3O)c(C)c2)ccc1/N=N/c1ccc2c(S(=O)(=O)O)cc(S(=O)(=O)O)c(N)c2c1O [compound 18]
HS (Hill slope), FXIIIa inhibition: 1.5 ± 0.6

COc1cc(-c2ccc(/N=N/c3ccc4c(S(=O)(=O)O)cc(S(=O)(=O)O)c(N)c4c3O)c(OC)c2)ccc1/N=N/c1ccc2c(S(=O)(=O)O)cc(S(=O)(=O)O)c(N)c2c1O [compound 19]
HS (Hill slope), FXIIIa inhibition: 1.4 ± 0.4
IC50: 13.9 ± 2.6 µM
